Here are results for 25 compounds from patent publication US10039747B2, “Tetrahydrocyclopentapyrrole derivatives and a method for preparing the same” (Daewoong Pharmaceutical Co., Ltd., priority 2013, dated 2018).

In general, IC50 refers to the point on the concentration scale where inhibition reaches its midpoint. A higher IC50 goes with weaker potency.

The target of the assay is T1, H+/K+-ATPase (Sus scrofa, UniProt P19156).
T1 construct: reaction buffer solution (60 mmol/l Tris-HCl buffer solution, pH 7.4) containing hog gastric vesicle; from tissue; host or cells: hog stomach (gastric vesicles, by centrifugation after Rabon et al. 1988)
T1 sequence (P19156 2-1034 limits assumed): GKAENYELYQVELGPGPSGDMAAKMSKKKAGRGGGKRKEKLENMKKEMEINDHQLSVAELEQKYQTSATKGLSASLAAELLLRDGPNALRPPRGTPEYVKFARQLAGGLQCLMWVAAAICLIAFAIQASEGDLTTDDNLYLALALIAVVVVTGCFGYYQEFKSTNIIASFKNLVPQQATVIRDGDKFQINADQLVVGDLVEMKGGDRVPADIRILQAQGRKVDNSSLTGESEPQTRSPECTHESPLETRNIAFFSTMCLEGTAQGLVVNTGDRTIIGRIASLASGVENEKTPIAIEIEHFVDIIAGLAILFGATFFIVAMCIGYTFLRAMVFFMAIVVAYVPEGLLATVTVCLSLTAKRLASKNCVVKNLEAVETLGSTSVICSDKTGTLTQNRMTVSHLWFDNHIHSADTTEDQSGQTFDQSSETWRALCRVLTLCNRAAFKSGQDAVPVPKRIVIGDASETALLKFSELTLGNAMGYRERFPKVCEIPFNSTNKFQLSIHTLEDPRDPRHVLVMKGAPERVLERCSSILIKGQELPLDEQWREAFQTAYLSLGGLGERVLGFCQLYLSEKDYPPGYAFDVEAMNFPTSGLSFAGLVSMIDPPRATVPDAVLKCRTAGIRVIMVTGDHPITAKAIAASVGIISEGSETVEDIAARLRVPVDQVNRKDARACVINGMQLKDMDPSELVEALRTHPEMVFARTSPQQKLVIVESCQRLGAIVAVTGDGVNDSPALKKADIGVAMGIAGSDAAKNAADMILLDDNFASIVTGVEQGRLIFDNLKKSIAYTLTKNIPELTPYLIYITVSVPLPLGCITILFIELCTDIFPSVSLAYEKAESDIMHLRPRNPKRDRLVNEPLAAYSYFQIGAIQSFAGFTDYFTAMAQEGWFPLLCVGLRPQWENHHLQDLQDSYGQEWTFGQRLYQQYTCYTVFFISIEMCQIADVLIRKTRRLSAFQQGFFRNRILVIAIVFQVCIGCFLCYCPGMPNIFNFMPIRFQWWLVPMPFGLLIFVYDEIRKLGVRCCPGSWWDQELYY
T1 sequence (P18434 whole entry partner): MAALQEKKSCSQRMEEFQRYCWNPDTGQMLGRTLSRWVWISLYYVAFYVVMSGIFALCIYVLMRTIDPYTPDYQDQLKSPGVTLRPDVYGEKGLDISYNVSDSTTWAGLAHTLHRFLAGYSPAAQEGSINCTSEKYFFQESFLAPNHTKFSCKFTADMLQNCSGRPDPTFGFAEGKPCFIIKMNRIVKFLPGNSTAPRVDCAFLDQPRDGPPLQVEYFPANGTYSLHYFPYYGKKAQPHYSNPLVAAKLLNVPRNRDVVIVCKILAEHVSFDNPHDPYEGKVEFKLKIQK
In words: Inhibition of proton pump (H+/K+-ATPase) activity in hog gastric vesicles. It counts as biochemical. The following applies: K+ specific H+/K+-ATPase activity, pH 7.4, 37° C. for 40 minutes, malachite green. The essentials:
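Hog gastric vesicles in 60 mmol/l Tris-HCl pH 7.4 with compound, started with ATP, 40 min at 37° C. Pi read by malachite green at 570 nm; K+-specific activity taken as difference between +K+ and −K+ activity. IC50 from % inhibition by 4-parameter logistic fit.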
`CN(C)C1CCCc2c1cn(S(=O)(=O)c1cccc(OC(F)(F)F)c1)c2-c1ccccc1F` (stereo not shown) [Example 141, 1-(2-fluorophenyl)-N,N-dimethyl-2-((3-(trifluoromethoxy)phenyl)sulfonyl)-4,5,6,7-tetrahydro-2H-isoindole-4-amine] displayed an IC50 of 10.6 µM. `CC(C)NC1CCc2c1cn(S(=O)(=O)c1cccnc1)c2-c1ccccc1F` (stereo not shown) [Example 104, 1-(2-fluorophenyl)-N-isopropyl-2-(pyridin-3-ylsulfonyl)-2,4,5,6-tetrahydrocyclopenta[c]pyrrol-4-amine] had an IC50 of 50 µM. Regarding `Cc1oc(=O)oc1CN(C)C1CCc2c1cn(S(=O)(=O)c1cccc(F)c1)c2-c1ccc(F)cc1F` (stereo not shown) [Example 117, 4-(((1-(2,4-difluorophenyl)-2-((3-fluorophenyl)sulfonyl)-2,4,5,6-tetrahydrocyclopenta[c]pyrrol-4-yl)(methyl)amino)methyl)-5-methyl-1,3-dioxol-2-one], the IC50 was determined as 2.44 µM. `Cc1oc(=O)oc1CN(C)C1CCc2c1cn(S(=O)(=O)c1cccc(Cl)c1)c2-c1ccccc1F` (stereo not shown) [Example 119, 4-(((2-((3-chlorophenyl)sulfonyl)-1-(2-fluorophenyl)-2,4,5,6-tetrahydrocyclopenta[c]pyrrol-4-yl)(methyl)amino)methyl)-5-methyl-1,3-dioxol-2-one] had an IC50 of 2.16 µM.

On to `CNC1CCc2c1cn(S(=O)(=O)c1cccc(Cl)c1)c2Cc1ccccc1` (stereo not shown) [Example 27, 1-benzyl-2-((3-chlorophenyl)sulfonyl)-N-methyl-2,4,5,6-tetrahydrocyclopenta[c]pyrrol-4-amine], for which the IC50 was 7.01 µM.

As to `CNC1CCc2c1cn(S(=O)(=O)c1ccc(Cl)c(Cl)c1Cl)c2-c1ccccc1F` (stereo not shown) [Example 80, 1-(2-fluorophenyl)-N-methyl-2-((2,3,4-trichlorophenyl)sulfonyl)-2,4,5,6-tetrahydrocyclopenta[c]pyrrol-4-amine], the midpoint of inhibition, the IC50, lay at 0.62 µM. Compound `CNC1CCc2c1cn(S(=O)(=O)c1cc(C)cnc1Cl)c2-c1ccccc1F` (stereo not shown) [Example 100, 2-((2-chloro-5-methylpyridin-3-yl)sulfonyl)-1-(2-fluorophenyl)-N-methyl-2,4,5,6-tetrahydrocyclopenta[c]pyrrol-4-amine] came in with an IC50 of 7.24 µM. For the compound `CNC1CCc2c1cn(S(=O)(=O)c1cccc(Cl)c1)c2-c1ccc(C)o1` (stereo not shown) [Example 32, 2-((3-chlorophenyl)sulfonyl)-N-methyl-1-(5-methylfuran-2-yl)-2,4,5,6-tetrahydrocyclopenta[c]pyrrol-4-amine], inhibition was half-maximal at 0.45 µM (IC50). In the case of `CNC1CCc2c1cn(Cc1cccc(Cl)c1)c2-c1ccccc1F` (stereo not shown) [Example 107, 2-(3-chlorobenzyl)-1-(2-fluorophenyl)-N-methyl-2,4,5,6-tetrahydrocyclopenta[c]pyrrol-4-amine], half-maximal inhibition (IC50) was put at 2.86 µM. Regarding `CNC1CCCc2c1cn(S(=O)(=O)c1cccc(Cl)c1)c2-c1ccncc1` (stereo not shown) [Example 128, 2-((3-chlorophenyl)sulfonyl)-N-methyl-1-(pyridin-4-yl)-4,5,6,7-tetrahydro-2H-isoindole-4-amine], it took 50 µM to reach half-maximal inhibition (IC50).

For the compound `CNC1CCc2c1cn(S(=O)(=O)c1cccc(F)c1)c2-c1ccc(C)cc1F` (stereo not shown) [Example 47, 1-(2-fluoro-4-methylphenyl)-2-((3-fluorophenyl)sulfonyl)-N-methyl-2,4,5,6-tetrahydrocyclopenta[c]pyrrol-4-amine], 0.47 µM corresponded to half-maximal inhibition (IC50). `CNC1CCc2c1cn(S(=O)(=O)c1cccc(Cl)c1)c2-c1cc(Cl)c(C)cc1F` (stereo not shown) [Example 26, 1-(5-chloro-2-fluoro-4-methylphenyl)-2-((3-chlorophenyl)sulfonyl)-N-methyl-2,4,5,6-tetrahydrocyclopenta[c]pyrrol-4-amine] displayed an IC50 of 0.62 µM. `CNC1CCc2c1cn(S(=O)(=O)c1cccc(Cl)c1)c2-c1ccc(OC)cc1` (stereo not shown) [Example 14, 2-((3-chlorophenyl)sulfonyl)-1-(4-methoxyphenyl)-N-methyl-2,4,5,6-tetrahydrocyclopenta[c]pyrrol-4-amine] displayed an IC50 of 1.26 µM. In the case of `CNC1CCc2c1cn(S(=O)(=O)c1cc(Cl)cc(Cl)c1)c2-c1cc(Cl)ccc1Cl` (stereo not shown) [Example 79, 1-(2,5-dichlorophenyl)-2-((3,5-dichlorophenyl)sulfonyl)-N-methyl-2,4,5,6-tetrahydrocyclopenta[c]pyrrol-4-amine] it was 0.77 µM; in that of `CNC1CCc2c1cn(S(=O)(=O)c1cccc(Cl)c1Cl)c2-c1ccccc1F` (stereo not shown) [Example 64, 2-((2,3-dichlorophenyl)sulfonyl)-1-(2-fluorophenyl)-N-methyl-2,4,5,6-tetrahydrocyclopenta[c]pyrrol-4-amine], 0.84 µM; in that of `COc1cccc(S(=O)(=O)n2cc3c(c2-c2ccccc2F)CCCC3N(C)C)c1` (stereo not shown) [Example 140, 1-(2-fluorophenyl)-2-((3-methoxyphenyl)sulfonyl)-N,N-dimethyl-4,5,6,7-tetrahydro-2H-isoindole-4-amine], 7 µM.

As to `CNC1CCc2c1cn(S(=O)(=O)c1cccc(Cl)c1)c2-c1cccnc1C(F)(F)F` (stereo not shown) [Example 38], the IC50 amounted to 5.82 µM. `CNC1CCc2c1cn(S(=O)(=O)c1ccccc1)c2-c1ccc(C)cc1F` (stereo not shown) [Example 44, 1-(2-fluoro-4-methylphenyl)-N-methyl-2-(phenylsulfonyl)-2,4,5,6-tetrahydrocyclopenta[c]pyrrol-4-amine] yielded an IC50 of 0.65 µM. For `CNC1CCc2c1cn(S(=O)(=O)c1cc(Cl)ccc1Cl)c2-c1ccc(F)cc1F` (stereo not shown) [Example 71, 2-((2,5-dichlorophenyl)sulfonyl)-1-(2,4-difluorophenyl)-N-methyl-2,4,5,6-tetrahydrocyclopenta[c]pyrrol-4-amine] the value was 0.67 µM; for `CNC1CCc2c1cn(S(=O)(=O)c1cccnc1)c2-c1ccccc1Cl` (stereo not shown) [Example 89, 1-(2-chlorophenyl)-N-methyl-2-(pyridin-3-ylsulfonyl)-2,4,5,6-tetrahydrocyclopenta[c]pyrrol-4-amine], 1.19 µM. In turn, `CNC1CCc2c1cn(S(=O)(=O)c1cccc(Cl)c1)c2-c1ccc(OC(F)(F)F)cc1` (stereo not shown) [Example 17, 2-((3-chlorophenyl)sulfonyl)-N-methyl-1-(4-(trifluoromethoxy)phenyl)-2,4,5,6-tetrahydrocyclopenta[c]pyrrol-4-amine] returned an IC50 of 1.39 µM. `CNC1CCc2c1cn(S(=O)(=O)c1cccc(Cl)c1)c2-c1cnn(C)c1` (stereo not shown) [Example 30, 2-((3-chlorophenyl)sulfonyl)-N-methyl-1-(1-methyl-1H-pyrazol-4-yl)-2,4,5,6-tetrahydrocyclopenta[c]pyrrol-4-amine] yielded an IC50 of 1.04 µM.

In turn, `CNC1CCc2c1cn(S(=O)(=O)c1cccc(Cl)c1)c2-c1ccoc1` (stereo not shown) [Example 31, 2-((3-chlorophenyl)sulfonyl)-1-(furan-3-yl)-N-methyl-2,4,5,6-tetrahydrocyclopenta[c]pyrrol-4-amine] showed an IC50 of 1.34 µM. In turn, `CNC1CCc2c1cn(S(=O)(=O)c1cccc(Cl)c1)c2-c1ccc(Cl)cc1F` (stereo not shown) [Example 20, 1-(4-chloro-2-fluorophenyl)-2-((3-chlorophenyl)sulfonyl)-N-methyl-2,4,5,6-tetrahydrocyclopenta[c]pyrrol-4-amine] came in with an IC50 of 0.54 µM. `CNC1CCc2c1cn(S(=O)(=O)c1cc(C(F)(F)F)ccc1Cl)c2-c1ccccc1F` (stereo not shown) [Example 74, 2-((2-chloro-5-(trifluoromethyl)phenyl)sulfonyl)-1-(2-fluorophenyl)-N-methyl-2,4,5,6-tetrahydrocyclopenta[c]pyrrol-4-amine]: inhibition was half-maximal at 0.52 µM (IC50).
